Data: ChEMBL document CHEMBL4350991, “Design, synthesis, and biological evaluation of rutacecarpine derivatives as multitarget-directed ligands for the treatment of Alzheimer's disease” (Eur J Med Chem, 2019)
Active and inactive are the calls of the source. The rule behind the calls is not given here.

Legend:
[1] = target: Amyloid-beta precursor protein (Homo sapiens) (UniProt P05067); test: Inhibition of self-mediated amyloid beta (1 to 42) (unknown origin) aggregation assessed as short and thin fibril formation at 100 uM incubated for 48 hrs by transmission electron microscopic method
Sequence of Amyloid-beta precursor protein (Homo sapiens) (P05067 whole entry): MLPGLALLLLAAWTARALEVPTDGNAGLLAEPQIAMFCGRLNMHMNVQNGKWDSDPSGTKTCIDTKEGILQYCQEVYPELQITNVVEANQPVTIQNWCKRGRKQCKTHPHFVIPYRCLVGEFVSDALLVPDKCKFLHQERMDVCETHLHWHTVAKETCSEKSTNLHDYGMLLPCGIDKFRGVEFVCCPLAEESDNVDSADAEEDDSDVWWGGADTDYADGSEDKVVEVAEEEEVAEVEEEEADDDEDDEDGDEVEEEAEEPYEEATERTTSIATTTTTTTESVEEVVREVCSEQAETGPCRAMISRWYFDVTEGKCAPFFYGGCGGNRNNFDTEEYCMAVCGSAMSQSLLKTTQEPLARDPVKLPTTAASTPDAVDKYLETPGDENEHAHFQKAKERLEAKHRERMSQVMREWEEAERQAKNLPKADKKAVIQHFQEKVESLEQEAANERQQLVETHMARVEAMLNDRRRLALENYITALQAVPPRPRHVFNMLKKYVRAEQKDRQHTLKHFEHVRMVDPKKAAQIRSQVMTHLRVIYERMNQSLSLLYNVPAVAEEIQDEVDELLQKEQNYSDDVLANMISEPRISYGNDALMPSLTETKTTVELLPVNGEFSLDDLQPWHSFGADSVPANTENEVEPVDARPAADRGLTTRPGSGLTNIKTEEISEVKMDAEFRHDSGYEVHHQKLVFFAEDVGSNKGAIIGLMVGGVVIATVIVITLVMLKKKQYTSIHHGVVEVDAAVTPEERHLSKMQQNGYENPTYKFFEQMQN

SH-SY5Y [2] = test: Neuroprotective activity against H2O2-induced cytotoxicity in human SH-SY5Y cells assessed as increase in cell viability pretreated for 3 hrs followed by H2O2 challenge measured after 24 hrs by MTT assay; type: functional, cell-based
[3] = n-Octanol-phosphate buffer partition co-efficient, log P of compound at pH 7.4 incubated for 48 hrs by UV spectrophotometry-based shake-flask method; type: physicochemical
SH-SY5Y [4] = test: Neuro-antioxidant activity against H2O2-induced oxidative stress in human SH-SY5Y cells assessed as intracellular ROS generation at 10 uM preincubated for 6 hrs followed by H2O2 challenge for 24 hrs by DCFH-DA staining-based fluorescence assay (reference value: 119.61 +/- 5.269%); type: functional
SH-SY5Y [5] = test: Neuro-antioxidant activity against H2O2-induced oxidative stress in human SH-SY5Y cells assessed as intracellular ROS generation at 20 uM preincubated for 6 hrs followed by H2O2 challenge for 24 hrs by DCFH-DA staining-based fluorescence assay (reference value: 119.61 +/- 5.269%); type: functional
SH-SY5Y [6] = test: Neuro-antioxidant activity in human SH-SY5Y cells assessed as H2O2-induced increase in intracellular ROS generation at 50 uM preincubated for 6 hrs followed by H2O2 challenge for 24 hrs by DCFH-DA staining-based fluorescence assay relative to control (reference value: 119.61 +/- 5.269%); type: functional
PC-12 [7] = test: cells; type: functional; conditions: Rattus norvegicus
PC-12 [8] = test: cells; type: functional; conditions: Rattus norvegicus; remark: listed apart in the source
[9] = Metal chelating activity assessed as compound-Mg2+ complex formation at 20 uM in presence of MgCl2 after 1 hr by UV-visible spectrophotometric analysis
SH-SY5Y [10] = test: Neuroprotective activity against amyloid beta (1 to 42 residues) induced cytotoxicity in human SH-SY5Y cells assessed as cell viability at 30 uM pretreated for 3 hrs followed by amyloid beta(1-42) challenge measured after 24 hrs by MTT assay (reference value: 37.53 +/- 1.4 %); type: functional; conditions: read-out: Activity
SH-SY5Y [11] = test: Neuro-antioxidant activity against H2O2-induced oxidative stress in human SH-SY5Y cells assessed as intracellular ROS generation at 5 uM preincubated for 6 hrs followed by H2O2 challenge for 24 hrs by DCFH-DA staining-based fluorescence assay (reference value: 119.61 +/- 5.269%); type: functional
[12] = Metal chelating activity assessed as compound-Fe2+ complex formation at 20 uM in presence of FeSO4 after 1 hr by UV-visible spectrophotometric analysis
SH-SY5Y [13] = test: Neuroprotective activity against amyloid beta (1 to 42 residues) induced cytotoxicity in human SH-SY5Y cells assessed as cell viability at 50 uM pretreated for 3 hrs followed by amyloid beta(1-42) challenge measured after 24 hrs by MTT assay (reference value: 37.53 +/- 1.4 %); type: functional; conditions: read-out: Activity
[14] = Metal chelating activity assessed as mole fraction of compound required to show 1:1 stoichiometry for compound-Cu2+ complex at 20 uM after 1 hr by UV-Vis absorption spectrophotometric method
[15] = Metal chelating activity assessed as compound-Cu2+ complex formation at 20 uM in presence of CuCl2 after 1 hr by UV-visible spectrophotometric analysis
SH-SY5Y [16] = test: Neuroprotective activity against H2O2-induced cytotoxicity in human SH-SY5Y cells assessed as cell viability at 10 uM pretreated for 3 hrs followed by H2O2 challenge measured after 24 hrs by MTT assay (reference value: 42.69 +/- 0.8%); type: functional; conditions: read-out: Activity
[17] = Metal chelating activity assessed as compound-Zn2+ complex formation at 20 uM in presence of ZnCl2 after 1 hr by UV-visible spectrophotometric analysis
PC-12 [18] = test: Neuroprotective activity against H2O2 induced cytotoxicity in rat PC12 cells assessed as increase in cell viability pretreated for 3 hrs followed by H2O2 challenge measured after 24 hrs by MTT assay; type: functional, cell-based
PC-12 [19] = test: cells; type: functional; conditions: Rattus norvegicus; remark: listed apart in the source
SH-SY5Y [20] = test: Neuroprotective activity against amyloid beta (1 to 42 residues) induced cytotoxicity in human SH-SY5Y cells assessed as increase in cell viability pretreated for 3 hrs followed by amyloid beta (1 to 42 residues) challenge measured after 24 hrs by MTT assay; type: functional, cell-based
[21] = Metal chelating activity assessed as compound-Ca2+ complex formation at 20 uM in presence of CaCl2 after 1 hr by UV-visible spectrophotometric analysis
[22] = target: Cholinesterase (Equus caballus) (UniProt P81908); test: Mixed-type inhibition of equine serum BuChE up to 8 uM using varying levels of S-butyrylthiocholine iodide as substrate preincubated for 30 mins followed by substrate addition and measured after 30 mins by Lineweaver-Burk plot analysis
Sequence of Cholinesterase (Equus caballus) (P81908 whole entry): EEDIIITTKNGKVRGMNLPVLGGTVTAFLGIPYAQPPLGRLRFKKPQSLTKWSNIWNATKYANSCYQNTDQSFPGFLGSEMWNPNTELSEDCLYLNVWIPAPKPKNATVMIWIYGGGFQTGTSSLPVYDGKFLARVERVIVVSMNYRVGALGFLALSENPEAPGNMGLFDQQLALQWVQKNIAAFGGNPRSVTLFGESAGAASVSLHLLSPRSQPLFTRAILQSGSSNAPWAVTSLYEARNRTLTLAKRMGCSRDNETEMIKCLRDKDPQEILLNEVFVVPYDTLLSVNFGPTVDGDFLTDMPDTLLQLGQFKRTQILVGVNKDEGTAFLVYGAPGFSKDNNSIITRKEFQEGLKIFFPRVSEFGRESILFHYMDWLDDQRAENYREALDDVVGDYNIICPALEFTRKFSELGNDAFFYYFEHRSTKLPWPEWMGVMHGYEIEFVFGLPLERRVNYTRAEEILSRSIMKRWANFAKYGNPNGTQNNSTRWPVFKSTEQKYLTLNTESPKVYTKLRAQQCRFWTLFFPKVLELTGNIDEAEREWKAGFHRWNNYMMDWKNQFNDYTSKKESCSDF

Cholinesterase = Cholinesterase (Equus caballus, UniProt P81908)
Sequence of Cholinesterase (P81908 whole entry): as above
Description: Inhibition of equine serum BuChE using S-butyrylthiocholine iodide as substrate preincubated with enzyme for 30 mins followed by substrate addition and measured after 30 mins by Ellman's method

SH-SY5Y [23] = test: Neuro-antioxidant activity against H2O2-induced oxidative stress in human SH-SY5Y cells assessed as intracellular ROS generation at 1 uM preincubated for 6 hrs followed by H2O2 challenge for 24 hrs by DCFH-DA staining-based fluorescence assay (reference value: 119.61 +/- 5.269%); type: functional
Acetylcholinesterase = Acetylcholinesterase (Electrophorus electricus, UniProt O42275); type: ADME
Sequence of Acetylcholinesterase (O42275 whole entry): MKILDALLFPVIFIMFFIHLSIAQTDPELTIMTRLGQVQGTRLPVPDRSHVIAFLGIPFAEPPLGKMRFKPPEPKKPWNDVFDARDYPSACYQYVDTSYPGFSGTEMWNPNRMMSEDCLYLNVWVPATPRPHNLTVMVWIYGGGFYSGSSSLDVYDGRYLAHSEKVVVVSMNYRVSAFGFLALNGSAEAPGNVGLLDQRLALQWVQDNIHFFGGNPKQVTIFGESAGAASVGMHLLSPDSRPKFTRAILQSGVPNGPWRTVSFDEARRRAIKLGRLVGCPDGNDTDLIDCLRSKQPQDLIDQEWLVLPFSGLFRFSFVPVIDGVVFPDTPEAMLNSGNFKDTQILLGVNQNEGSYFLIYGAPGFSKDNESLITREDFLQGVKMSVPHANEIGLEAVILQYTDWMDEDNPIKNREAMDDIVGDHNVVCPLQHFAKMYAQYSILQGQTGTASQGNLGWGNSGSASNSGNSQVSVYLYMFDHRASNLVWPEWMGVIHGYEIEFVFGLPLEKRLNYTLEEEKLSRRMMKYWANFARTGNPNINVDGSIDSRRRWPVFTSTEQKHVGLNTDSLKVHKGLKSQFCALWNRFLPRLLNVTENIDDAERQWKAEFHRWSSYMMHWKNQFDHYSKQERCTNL
Description: Inhibition of electric eel AChE using acetylthiocholine iodide as substrate preincubated for 30 mins followed by substrate addition and measured after 30 mins by Ellman's method

SH-SY5Y [24] = test: Neuroprotective activity against H2O2-induced cytotoxicity in human SH-SY5Y cells assessed as cell viability at 50 uM pretreated for 3 hrs followed by H2O2 challenge measured after 24 hrs by MTT assay (reference value: 42.69 +/- 0.8%); type: functional; conditions: read-out: Activity
PC-12 [25] = test: cells; type: functional; conditions: Rattus norvegicus; remark: listed apart in the source
SH-SY5Y [26] = test: Neuroprotective activity against amyloid beta (1 to 42 residues) induced cytotoxicity in human SH-SY5Y cells assessed as cell viability at 10 uM pretreated for 3 hrs followed by amyloid beta(1-42) challenge measured after 24 hrs by MTT assay (reference value: 37.53 +/- 1.4%); type: functional; conditions: read-out: Activity
PC-12 [27] = test: cells; type: functional; conditions: Rattus norvegicus; remark: listed apart in the source
SH-SY5Y [28] = test: Neuroprotective activity against H2O2-induced cytotoxicity in human SH-SY5Y cells assessed as cell viability at 30 uM pretreated for 3 hrs followed by H2O2 challenge measured after 24 hrs by MTT assay (reference value: 42.69 +/- 0.8%); type: functional; conditions: read-out: Activity
[29] = Metal chelating activity assessed as compound-Al3+ complex formation at 20 uM in presence of AlCl3 after 1 hr by UV-visible spectrophotometric analysis

O=c1c2cc(NS(=O)(=O)c3ccccc3OC(F)(F)F)ccc2nc2n1CCc1c-2[nH]c2ccccc12
inhibition [1]: Active | Activity (SH-SY5Y [2]): Dose-dependent effect | logD at 48 h [3]: 3.62 | Activity (SH-SY5Y [4]): 82.464% | Activity (SH-SY5Y [5]): 105.494% | Activity (SH-SY5Y [6]): 98.502% | viability at 1 µM (PC-12 [7]): 44.3% | viability at 5 µM (PC-12 [8]): 45.3% | Activity [9]: inactive | viability at 30 µM (SH-SY5Y [10]): 57.6% | Activity (SH-SY5Y [11]): 84.23% | Activity [12]: inactive | viability at 50 µM (SH-SY5Y [13]): 64.2% | Activity [14]: 1.1 molar ratio | Activity [15]: Active | viability at 10 µM (SH-SY5Y [16]): 53.9% | Activity [17]: inactive | Activity (PC-12 [18]): Dose-dependent effect | viability at 50 µM (PC-12 [19]): 63.8% | Activity (SH-SY5Y [20]): Dose-dependent effect | Activity [21]: inactive | inhibition [22]: Active | IC50 (Cholinesterase): 3.6 µM | Activity (SH-SY5Y [23]): 83.17% | IC50 (Acetylcholinesterase): > 100 µM | viability at 50 µM (SH-SY5Y [24]): 61.9% | viability at 30 µM (PC-12 [25]): 59.9% | viability at 10 µM (SH-SY5Y [26]): 47.9% | viability at 10 µM (PC-12 [27]): 59.7% | viability at 30 µM (SH-SY5Y [28]): 61.7% | Activity [29]: inactive
